PubChem BioAssay (NCI)
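Where inhibition never reached the appropriate level, the endpoint shown equals the highest concentration tested. Otherwise, values were interpolated linearly from a five-concentration, 48-hour dose response in 96-well plates. The concentration for 50% growth inhibition is given as GI50. Definition used: TGI = concentration required for complete inhibition of growth.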

Assays:
Test in all cases: growth of human tumour cells (NCI), 48 h
[1] = system: RPMI-8226 leukemia
[2] = system: A498 renal
[3] = system: A549 NSCLC
[4] = system: T-47D breast
[5] = system: LOX IMVI melanoma
[6] = system: 786-0 renal
[7] = system: K-562 leukemia
[8] = system: SW-620 colon
[9] = system: MOLT-4 leukemia
[10] = system: HOP-92 NSCLC
[11] = system: HCC-2998 colon
[12] = system: PC-3 prostate
[13] = system: SN12C renal
[14] = system: UACC-257 melanoma
[15] = system: SK-OV-3 ovarian
[16] = system: SNB-19 CNS
[17] = system: HCT-15 colon
[18] = system: U251 CNS
[19] = system: SNB-75 CNS
[20] = system: HL-60(TB) leukemia
[21] = system: NCI-H226 lung
[22] = system: OVCAR-4 ovarian
[23] = system: M14 melanoma
[24] = system: UO-31 renal
[25] = system: MDA-MB-231 breast
[26] = system: OVCAR-8 ovarian
[27] = system: UACC-62 melanoma
[28] = system: OVCAR-3 ovarian
[29] = system: SF-295 CNS

Compound: CCc1n(Cc2ccc3ccccc3n2)cc[n+]1Cc1ccc2ccccc2n1
- GI50 [1]: 17.2 nM
- TGI [1]: 10100 nM
- GI50 [2]: 303 nM
- TGI [2]: 9380 nM
- GI50 [3]: 5270 nM
- TGI [3]: > 100000 nM
- GI50 [4]: 46 nM
- TGI [4]: 794 nM
- GI50 [5]: 596 nM
- TGI [5]: 13200 nM
- GI50 [6]: 31200 nM
- TGI [6]: > 100000 nM
- GI50 [7]: 493 nM
- TGI [7]: 16100 nM
- GI50 [8]: 1390 nM
- TGI [8]: 30200 nM
- GI50 [9]: 437 nM
- TGI [9]: 10100 nM
- GI50 [10]: 18.3 nM
- TGI [10]: 521 nM
- GI50 [11]: 227 nM
- TGI [11]: 14400 nM
- GI50 [12]: 163 nM
- TGI [12]: 10700 nM
- GI50 [13]: 317 nM
- TGI [13]: 7750 nM
- GI50 [14]: 79.6 nM
- TGI [14]: 695 nM
- GI50 [15]: 1390 nM
- TGI [15]: 15100 nM
- GI50 [16]: 68.7 nM
- TGI [16]: 10700 nM
- GI50 [17]: 65700 nM
- TGI [17]: > 100000 nM
- GI50 [18]: 186 nM
- TGI [18]: 13500 nM
- GI50 [19]: 141 nM
- TGI [19]: 2400 nM
- GI50 [20]: 32.9 nM
- TGI [20]: 262 nM
- GI50 [21]: 2560 nM
- TGI [21]: 30800 nM
- GI50 [22]: 37.8 nM
- TGI [22]: 10400 nM
- GI50 [23]: 2930 nM
- TGI [23]: 21700 nM
- GI50 [24]: 21200 nM
- TGI [24]: > 100000 nM
- GI50 [25]: 441 nM
- TGI [25]: 4160 nM
- GI50 [26]: 1630 nM
- TGI [26]: 17600 nM
- GI50 [27]: 186 nM
- TGI [27]: 3050 nM
- GI50 [28]: 87.8 nM
- TGI [28]: 6660 nM
- GI50 [29]: 2810 nM
